The source of these data is paper PMC6099238 (Journal of Clinical Pharmacology, 2018).

The subject of series [1] is serum uric acid. Nature of the series: Serum uric acid lowering, phase 1b open-label multiple-dose study. In kind it is in vivo, patients with gout. The conditions noted are these: for serum uric acid: Change From Baseline, Emax (maximum percentage change from baseline in serum uric acid lowering) / serum uric acid: Change From Baseline, Predose / Subjects With Predose Serum Uric Acid <4 mg/dL / Subjects With Predose Serum Uric Acid <5 mg/dL / Subjects With Predose Serum Uric Acid <6 mg/dL: group 2; for serum uric acid: Change From Baseline, Emax (maximum percentage change from baseline in serum uric acid lowering) / serum uric acid: Change From Baseline, Predose: ALLO 300 mg/day alone (day 7), ALLO 300 mg/LESU 600 mg (day 14), LESU 600 mg/day alone (day 21), % (SE); for Subjects With Predose Serum Uric Acid <4 mg/dL / Subjects With Predose Serum Uric Acid <5 mg/dL / Subjects With Predose Serum Uric Acid <6 mg/dL: ALLO 300 mg/day alone (day 7, n = 10), ALLO 300 mg/LESU 600 mg (day 14, n = 10), LESU 600 mg/day alone (day 21, n = 9).

Series [2] has as its system urinary urate excretion. Nature of the series: Urinary excretion of urate, fractional excretion of urate and xanthine. The series is classed as in vivo, patients with gout.
The format of series [3] is in vivo, patients with gout.
Series [4] relates to URAT1. To be noted: cited from earlier work.
Where [5] appears, read: ALLO 300 mg/LESU 400 mg versus ALLO 300 mg alone.
[6] abbreviates: ALLO 300 mg/LESU 600 mg versus ALLO 300 mg alone.

Read-outs that look alike come from different tables or passages of the source.

Take `Oc1ncnc2[nH]ncc12` [allopurinol]: in series [1] (allopurinol 300 mg (discussion)), the “Emax (serum uric acid lowering)” value is recorded as −37%. In addition, in series [1] (allopurinol 300 mg/day alone (abstract)), the “serum uric acid reduced by” value is reported as 37%. Further, in series [1], the “serum uric acid: Change From Baseline, Emax (maximum percentage change from baseline in serum uric acid lowering)” value is listed as −35.1 (2.3) %; the “serum uric acid: Change From Baseline, Predose” value is on record as −28.7 (2.4) %; the “Subjects With Predose Serum Uric Acid <4 mg/dL” value is reported as 0 n (%); the “Subjects With Predose Serum Uric Acid <5 mg/dL” value is 1 (10) n (%). In series [1], the “Subjects With Predose Serum Uric Acid <6 mg/dL” value is reported as 3 (30) n (%). In addition, the “decrease of 24‐hour urate excretion compared with baseline” value in series [2] (allopurinol 300 mg alone) is around 35%. Moreover, in series [2] (allopurinol 300 mg/day alone), the “Mean 24‐hour urate excretion compared with baseline” value was “–35%”. Also, in series [2] (single agent), the “effect on fractional excretion of urate” value is given as “no effect” and the “effect on xanthine excretion (urine)” value is recorded as “increased”.
`O=C(O)CSc1nnc(Br)n1-c1ccc(C2CC2)c2ccccc12` [lesinurad]: in series [1], the “serum uric acid: Change From Baseline, Emax (maximum percentage change from baseline in serum uric acid lowering)” value is recorded as −46.7 (5.5) %; the “serum uric acid: Change From Baseline, Predose” value is reported as −37.2 (1.6) %; the “Subjects With Predose Serum Uric Acid <4 mg/dL” value is 0 n (%); the “Subjects With Predose Serum Uric Acid <5 mg/dL” value is on record as 3 (33) n (%). In series [1], the “Subjects With Predose Serum Uric Acid <6 mg/dL” value was 6 (67) n (%). In addition, in series [1] (lesinurad 400 mg/day, added to allopurinol 300 mg/day or alone (abstract)), the “serum uric acid reduced by” value worked out at 44%. Moreover, the “serum uric acid reduced by” value in series [1] (lesinurad 600 mg/day, added to allopurinol 300 mg/day or alone (abstract)) was 47%. The “effect on xanthine excretion (urine)” value in series [2] (single agent) is on record as “no significant effect”.
The term Cmax denotes the maximum level reached in the sampled fluid or tissue. `O=c1[nH]c(=O)c2c[nH]nc2[nH]1` [oxypurinol]: the “Oxypurinol AUC0‐24 Geometric Mean Ratio (90%CI) (Combination/Alone)” value in series [3] (setting [5]) was 74.2 (65.1‐84.7); in series [3] (setting [6]), 64.7 (61.3‐68.3). Moreover, the “Oxypurinol Cmax Geometric Mean Ratio (90%CI) (Combination/Alone)” value in series [3] (setting [5]) is 79.4 (69.8‐90.3); in series [3] (setting [6]) it was 71.7 (67.8‐75.7). In addition, the entries for the “Decrease of oxypurinol plasma concentrations” value in series [3] (during co-administration of lesinurad 400 mg with allopurinol 300 mg) and in series [3] (during co-administration of lesinurad 600 mg with allopurinol 300 mg) were “approximately 26%” and around 35%, respectively. In addition, in series [3] (human, plasma, oral, Oxypurinol Cmax, ALLO 300 mg/LESU 600 mg co-administration, geometric mean, n = 10), the Cmax worked out at 9660 ng/mL. For the same molecule, in series [3] (plasma, ALLO 300 mg alone, group 1 (before LESU 400 mg), median (range), n = 10), the “Oxypurinol Tmax” value is given as 4.00 (3.00‐6.00) h. The “Oxypurinol Cmax” value in series [3] (plasma, ALLO 300 mg/LESU 400 mg co-administration, geometric mean, n = 10) is on record as 9.82 (8.66‐11.1) μg/mL. In series [4], the transporter substrate entry was “substrate of URAT1”.
